Results published in article PMC5578959, “Selective LRRK2 kinase inhibition reduces phosphorylation of endogenous Rab10 and Rab12 in human peripheral mononuclear blood cells” (Scientific Reports, 2017).

Key:
Assay in all cases: KiNativ profiling in human PBMCs
Assay type in all cases: binding
p70S6K,p70S6Kb = conditions: ATP Loop
Description: (§1) Compounds were shipped to ActivX Technologies (San Diego, US) where LRRK2 target engagement and broad kinase profiling was performed using KiNativ™ procedures. Live cell treatment of human peripheral blood mononuclear cells (PBMCs) at two compound concentrations (1 µM and 0.1 µM) were used to evaluate and compare in vitro target engagement and kinase selectivity, respectively (see Supplementary File 1).

MAP3K1 = system: T1, MAP3K1; conditions: Lys2
T1 construct: purchased ActivX Technologies (KiNativ)
Description: as §1

CaMK2g = system: T2, CaMK2g; conditions: Lys1
T2 construct: purchased ActivX Technologies (KiNativ)
Description: as §1

GPRK6 = system: T3, GPRK6; conditions: Lys2
T3 construct: purchased ActivX Technologies (KiNativ)
Description: as §1

OSR1 = system: T4, OSR1; conditions: Lys2
T4 construct: purchased ActivX Technologies (KiNativ)
Description: as §1

RSK1 domain2 = system: T5, RSK1 domain2; conditions: Lys2
T5 construct: RSK1 domain2; purchased ActivX Technologies (KiNativ)
Description: as §1

CDC2 = system: T6, CDC2; conditions: Lys2
T6 construct: purchased ActivX Technologies (KiNativ)
Description: as §1

RSK2 domain1 = system: T7, RSK2 domain1
T7 construct: RSK2 domain1; purchased ActivX Technologies (KiNativ)
Description: as §1

MARK2 = system: T8, MARK2; conditions: Lys1
T8 construct: purchased ActivX Technologies (KiNativ)
Description: as §1

JAK1 domain1 = system: T9, JAK1 domain1; conditions: Protein Kinase Domain
T9 construct: JAK1 domain1; purchased ActivX Technologies (KiNativ)
Description: as §1

PKD2 = system: T10, PKD2; conditions: Lys1
T10 construct: purchased ActivX Technologies (KiNativ)
Description: as §1

YANK3 = system: T11, YANK3; conditions: Lys2
T11 construct: purchased ActivX Technologies (KiNativ)
Description: as §1

CaMKK2 = system: T12, CaMKK2
T12 construct: purchased ActivX Technologies (KiNativ)
Description: as §1

Wnk1,Wnk2 = conditions: ATP Loop
Description: as §1

Erk1 = system: T13, Erk1; conditions: Lys2
T13 construct: purchased ActivX Technologies (KiNativ)
Description: as §1

LATS1 = system: T14, LATS1
T14 construct: purchased ActivX Technologies (KiNativ)
Description: as §1

eEF2K = system: T15, eEF2K; conditions: ATP
T15 construct: purchased ActivX Technologies (KiNativ)
Description: as §1

PITSLRE = system: T16, PITSLRE; conditions: Lys2
T16 construct: purchased ActivX Technologies (KiNativ)
Description: as §1

DGKA = system: T17, DGKA; conditions: ATP
T17 construct: purchased ActivX Technologies (KiNativ)
Description: as §1

CSK = system: T18, CSK
T18 construct: purchased ActivX Technologies (KiNativ)
Description: as §1

STLK3 = system: T19, STLK3; conditions: Lys2
T19 construct: purchased ActivX Technologies (KiNativ)
Description: as §1

PIK3C3 = system: T20, PIK3C3; conditions: ATP
T20 construct: purchased ActivX Technologies (KiNativ)
Description: as §1

CHK2 = system: T21, CHK2
T21 construct: purchased ActivX Technologies (KiNativ)
Description: as §1

p70S6K = system: T22, p70S6K; conditions: Lys2
T22 construct: purchased ActivX Technologies (KiNativ)
Description: as §1

PRPK = system: T23, PRPK; conditions: ATP Loop
T23 construct: purchased ActivX Technologies (KiNativ)
Description: as §1

CDK11,CDK8 = conditions: Lys2
Description: as §1

LRRK2 = system: T24, LRRK2
T24 construct: purchased ActivX Technologies (KiNativ)
Description: as §1

GSK3B = system: T25, GSK3B; conditions: Lys2
T25 construct: purchased ActivX Technologies (KiNativ)
Description: as §1

PCTAIRE1,PCTAIRE3 = conditions: Lys2
Description: as §1

PCTAIRE2 = system: T26, PCTAIRE2; conditions: Lys2
T26 construct: purchased ActivX Technologies (KiNativ)
Description: as §1

IRAK3 = system: T27, IRAK3; conditions: Lys1
T27 construct: purchased ActivX Technologies (KiNativ)
Description: as §1

IRAK4 = system: T28, IRAK4
T28 construct: purchased ActivX Technologies (KiNativ)
Description: as §1

MAP3K2 = system: T29, MAP3K2; conditions: Lys1
T29 construct: purchased ActivX Technologies (KiNativ)
Description: as §1

MLK3 = system: T30, MLK3
T30 construct: purchased ActivX Technologies (KiNativ)
Description: as §1

RSK1,RSK2,RSK3 domain1 = conditions: Lys2
Description: as §1

ACK = system: T31, ACK; conditions: Lys1
T31 construct: purchased ActivX Technologies (KiNativ)
Description: as §1

Cn1cc(-c2c[nH]c3ncnc(N4CCOCC4)c23)cc1C#N [PFE-360]
% Inhibition (p70S6K,p70S6Kb; 0.1µM): -0.2%
% Inhibition (p70S6K,p70S6Kb; 1µM): 13.2%
% Inhibition (MAP3K1; 0.1µM): 7%
% Inhibition (MAP3K1; 1µM): -26.4%
% Inhibition (CaMK2g; 0.1µM): 11.1%
% Inhibition (CaMK2g; 1µM): 9.2%
% Inhibition (GPRK6; 0.1µM): 5.7%
% Inhibition (GPRK6; 1µM): 0.4%
% Inhibition (OSR1; 0.1µM): -20.9%
% Inhibition (OSR1; 1µM): -5.1%
% Inhibition (RSK1 domain2; 0.1µM): -5.4%
% Inhibition (RSK1 domain2; 1µM): -11.2%
% Inhibition (CDC2; 0.1µM, peptide DLKPQNLLIDDK): -1.5%
% Inhibition (CDC2; 0.1µM, peptide DLKPQNLLIDDKGTIK): -4.2%
% Inhibition (CDC2; 1µM, peptide DLKPQNLLIDDK): 4.1%
% Inhibition (RSK2 domain1; 0.1µM, ATP Loop): 13.2%
% Inhibition (RSK2 domain1; 0.1µM, Activation Loop): 9.2%
% Inhibition (RSK2 domain1; 0.1µM, Lys2): -0.1%
% Inhibition (RSK2 domain1; 1µM, ATP Loop): 21.8%
% Inhibition (RSK2 domain1; 1µM, Activation Loop): 20.3%
% Inhibition (RSK2 domain1; 1µM, Lys2): 22.9%
% Inhibition (MARK2; 0.1µM): -8.9%
% Inhibition (MARK2; 1µM): 2.3%
% Inhibition (JAK1 domain1; 0.1µM): 16.2%
% Inhibition (JAK1 domain1; 1µM): 8.2%
% Inhibition (PKD2; 0.1µM): 3.7%
% Inhibition (PKD2; 1µM): -5.1%
% Inhibition (YANK3; 0.1µM): 8.2%
% Inhibition (YANK3; 1µM): 13.5%
% Inhibition (CaMKK2; 0.1µM, Lys1): -23.9%
% Inhibition (CaMKK2; 0.1µM, Lys2): -16.3%
% Inhibition (CaMKK2; 1µM, Lys1): -1.2%
% Inhibition (CaMKK2; 1µM, Lys2): 4.6%
% Inhibition (Wnk1,Wnk2; 0.1µM): -5.4%
% Inhibition (Wnk1,Wnk2; 1µM): -15.3%
% Inhibition (Erk1; 0.1µM): 7.7%
% Inhibition (Erk1; 1µM): 3.7%
% Inhibition (LATS1; 0.1µM, Lys1): 5.2%
% Inhibition (LATS1; 0.1µM, Lys2): 3.2%
% Inhibition (LATS1; 1µM, Lys1): 0.9%
% Inhibition (LATS1; 1µM, Lys2): 0.1%
% Inhibition (eEF2K; 0.1µM): 15.7%
% Inhibition (eEF2K; 1µM): -1.8%
% Inhibition (PITSLRE; 0.1µM): -3.8%
% Inhibition (PITSLRE; 1µM): -18.7%
% Inhibition (DGKA; 0.1µM): 1.4%
% Inhibition (DGKA; 1µM): -4.5%
% Inhibition (CSK; 0.1µM, Activation Loop): -3.4%
% Inhibition (CSK; 0.1µM, Lys1): 0.7%
% Inhibition (CSK; 1µM, Activation Loop): -10.5%
% Inhibition (CSK; 1µM, Lys1): -10.4%
% Inhibition (STLK3; 0.1µM): -1.9%
% Inhibition (STLK3; 1µM): -6.2%
% Inhibition (PIK3C3; 0.1µM, peptide TEDGGKYPVIFKHGDDLR): -2.7%
% Inhibition (PIK3C3; 0.1µM, peptide TEDGGKYPVIFKHGDDLRQDQLILQIISLMDK): -22.4%
% Inhibition (PIK3C3; 1µM, peptide TEDGGKYPVIFKHGDDLR): -7.9%
% Inhibition (PIK3C3; 1µM, peptide TEDGGKYPVIFKHGDDLRQDQLILQIISLMDK): -43.1%
% Inhibition (CHK2; 0.1µM, Lys1): 3.6%
% Inhibition (CHK2; 0.1µM, Lys2): -6.7%
% Inhibition (CHK2; 1µM, Lys1): -2.7%
% Inhibition (CHK2; 1µM, Lys2): -12.6%
% Inhibition (p70S6K; 0.1µM): -16.9%
% Inhibition (p70S6K; 1µM): 8.5%
% Inhibition (PRPK; 0.1µM): 2.6%
% Inhibition (PRPK; 1µM): 8.1%
% Inhibition (CDK11,CDK8; 0.1µM): -9.1%
% Inhibition (CDK11,CDK8; 1µM): 9.6%
% Inhibition (LRRK2; 0.1µM, Lys1): >90%
% Inhibition (LRRK2; 0.1µM, Lys2): 93.8%
Inhibition (LRRK2; 0.1µM, Lys2): full inhibition
% Inhibition (LRRK2; 1µM, Lys1): >90%
% Inhibition (LRRK2; 1µM, Lys2): 96.7%
% Inhibition (GSK3B; 0.1µM): 11.2%
% Inhibition (GSK3B; 1µM): 14.9%
% Inhibition (PCTAIRE1,PCTAIRE3; 0.1µM): 1.3%
% Inhibition (PCTAIRE1,PCTAIRE3; 1µM): 11.4%
% Inhibition (PCTAIRE2; 0.1µM): -2.4%
% Inhibition (PCTAIRE2; 1µM): -5.2%
% Inhibition (IRAK3; 0.1µM): -1.2%
% Inhibition (IRAK3; 1µM): 3%
% Inhibition (IRAK4; 0.1µM, Lys1): 4.1%
% Inhibition (IRAK4; 0.1µM, Lys2): 8%
% Inhibition (IRAK4; 1µM, Lys1): -0.3%
% Inhibition (IRAK4; 1µM, Lys2): 1.4%
% Inhibition (MAP3K2; 0.1µM): -14.1%
% Inhibition (MAP3K2; 1µM): -24.4%
% Inhibition (MLK3; 0.1µM, Lys1): 5%
% Inhibition (MLK3; 0.1µM, Lys2): -4.6%
% Inhibition (MLK3; 1µM, Lys1): -5.6%
% Inhibition (MLK3; 1µM, Lys2): 10.2%
% Inhibition (RSK1,RSK2,RSK3 domain1; 0.1µM): 14.5%
% Inhibition (RSK1,RSK2,RSK3 domain1; 1µM): 16.3%
% Inhibition (ACK; 0.1µM): -5.6%
% Inhibition (ACK; 1µM): -0.5%
